PMC3206071, “Characterization of a Truncated Metabotropic Glutamate Receptor in a Primitive Metazoan, the Parasitic Flatworm Schistosoma mansoni” (PLoS ONE, 2011)

How the values were obtained:
[1] = target: T1, SmGBP (S. mansoni glutamate-binding protein) (Schistosoma mansoni, UniProt E2IFW0); experiment: [3H]glutamate radioligand competition at […], purified SmGBP-His
[2] = target: T1, SmGBP (S. mansoni glutamate-binding protein); experiment: as above; details: read-out: % inhibition at 10 mM
[3] = target: T1, SmGBP (S. mansoni glutamate-binding protein); experiment: [3H]glutamate radioligand competition with unlabelled glutamate, PEG precipitation, purified SmGBP-His

T1 sequence (E2IFW0 entry or part of it): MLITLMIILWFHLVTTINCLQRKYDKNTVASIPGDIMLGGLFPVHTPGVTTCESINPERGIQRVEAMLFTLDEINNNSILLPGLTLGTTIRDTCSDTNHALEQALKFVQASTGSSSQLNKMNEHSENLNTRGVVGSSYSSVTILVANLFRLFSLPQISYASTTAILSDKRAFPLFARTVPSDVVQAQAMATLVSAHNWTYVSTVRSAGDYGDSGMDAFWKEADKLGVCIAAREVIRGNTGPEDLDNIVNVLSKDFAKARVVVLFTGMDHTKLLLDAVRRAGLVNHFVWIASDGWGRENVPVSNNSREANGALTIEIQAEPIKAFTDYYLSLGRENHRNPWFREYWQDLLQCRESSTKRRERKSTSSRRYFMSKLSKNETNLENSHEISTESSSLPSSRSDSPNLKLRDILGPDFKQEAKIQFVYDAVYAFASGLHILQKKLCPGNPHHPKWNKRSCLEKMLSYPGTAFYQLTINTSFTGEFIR

inhibition at 10000 µM [2] [%] | SMILES | [3H]glutamate radioligand competition at 10 mM, purified SmGBP-His [1] | other results
 | N[C@H](C(=O)O)c1cc(O)cc(O)c1 [(S)-3,5-DHPG, (S)-3,5-Dihydroxyphenylglycine] | also recognized some glutamatergic agents, for example, agonists DHPG and AP4 and the antagonist, MCPG | 
 | C[C@@](N)(C(=O)O)c1ccc(C(=O)O)cc1 [(S)-MCPG, (S)-a-Methyl-4-carboxyphenylglycine] | able to compete with [^3H]glutamate, AP4 (mGluR III agonist) and S)-MCPG (mGluRs I/II antagonist) being the strongest | 
 | N[C@@H](CCP(=O)(O)O)C(=O)O [L-AP4, L-(+)-2-Amino-4-phosphonobutyric acid] | able to compete with [^3H]glutamate, AP4 (mGluR III agonist) and S)-MCPG (mGluRs I/II antagonist) being the strongest | 
84 | N[C@@H](CC(=O)O)C(=O)O [aspartate] |  | 
 | N[C@@H](CCC(=O)O)C(=O)O [glutamate] |  | IC50 [3]: 300 ± 50 nM
77 | NC(=O)CC[C@H](N)C(=O)O [glutamine] |  | 
